Laboratory results: ChEMBL document CHEMBL1201862, “PubChem BioAssay data set” (2004)
One block for each compound: values may come before it. The source made the active and inactive calls.

Experiments:
cells [1] = assay type: functional, cell-based
cells [2] = assay type: functional, cell-based; remark: listed apart in the source
[3] = inhibitors of intracellular T. cruzi replication, confirmation, NIH3T3 host cells, beta-gal luminescence (AID 2044); assay type: functional, cell-based;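 further: intracellular parasites grown in NIH/3T3 mouse fibroblasts as host cells; luminescent beta-galactosidase reporter signal from transgenic T. cruzi replicating inside host cells; inhibitors lower the luminescence signal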
[4] = growth suppression of PTEN-null colon cells, dose response, cell-based, HCT116 PTEN knockout (AID 1047); assay type: functional;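 further: HCT116 colon tumor cells with PTEN knocked out; cells exposed to compound for 60 hours before readout; potency for loss of cell viability measured by luminescence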
[5] = cytotoxicity toward NIH3T3 fibroblasts, dose response, counter-screen, cell-based, ATP luminescence, mouse fibroblasts (AID 2010); assay type: functional;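 further: cells exposed to compound for about 90 hours before reading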
[6] = growth suppression of beta-catenin-knockout colon cells, dose response, cell-based, HCT116, human colon tumor (AID 1045); assay type: functional;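 further: HCT116 colon tumor cells with beta catenin knocked out; cells exposed to compound for 60 hours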
[7] = target: T1, Microphthalmia-associated transcription factor (Homo sapiens, UniProt O75030); test: TRPM1 promoter luciferase signal decrease, dose response, MITF inhibitor project, cell-based, SK-MEL-5, cherry-picked, set 3 (AID 493073); assay type: functional
T1 sequence (O75030 whole entry): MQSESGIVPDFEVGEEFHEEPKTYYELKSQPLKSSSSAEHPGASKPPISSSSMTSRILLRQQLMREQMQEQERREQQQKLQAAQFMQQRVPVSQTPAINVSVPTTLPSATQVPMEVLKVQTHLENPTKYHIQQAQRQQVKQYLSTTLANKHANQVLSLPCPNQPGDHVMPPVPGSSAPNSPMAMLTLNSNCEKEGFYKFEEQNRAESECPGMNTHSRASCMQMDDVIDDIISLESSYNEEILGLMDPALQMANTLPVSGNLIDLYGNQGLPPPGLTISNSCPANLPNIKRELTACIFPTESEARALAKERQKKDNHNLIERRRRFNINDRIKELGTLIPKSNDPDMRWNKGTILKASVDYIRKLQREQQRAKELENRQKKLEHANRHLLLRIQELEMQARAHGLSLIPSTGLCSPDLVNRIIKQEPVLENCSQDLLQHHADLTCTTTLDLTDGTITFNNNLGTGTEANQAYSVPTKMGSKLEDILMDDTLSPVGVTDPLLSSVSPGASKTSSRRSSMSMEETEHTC

Cytochrome P450 2C19 = Cytochrome P450 2C19 (Homo sapiens, UniProt P33261); test: Cytochrome panel assay with activity outcomes. Panel member name: p450-cyp2c19 Compounds with AC50 equal or less than 10 uM are considered active; assay type: functional; conditions: read-out: AC50
Cytochrome P450 2C19, sequence (P33261 whole entry): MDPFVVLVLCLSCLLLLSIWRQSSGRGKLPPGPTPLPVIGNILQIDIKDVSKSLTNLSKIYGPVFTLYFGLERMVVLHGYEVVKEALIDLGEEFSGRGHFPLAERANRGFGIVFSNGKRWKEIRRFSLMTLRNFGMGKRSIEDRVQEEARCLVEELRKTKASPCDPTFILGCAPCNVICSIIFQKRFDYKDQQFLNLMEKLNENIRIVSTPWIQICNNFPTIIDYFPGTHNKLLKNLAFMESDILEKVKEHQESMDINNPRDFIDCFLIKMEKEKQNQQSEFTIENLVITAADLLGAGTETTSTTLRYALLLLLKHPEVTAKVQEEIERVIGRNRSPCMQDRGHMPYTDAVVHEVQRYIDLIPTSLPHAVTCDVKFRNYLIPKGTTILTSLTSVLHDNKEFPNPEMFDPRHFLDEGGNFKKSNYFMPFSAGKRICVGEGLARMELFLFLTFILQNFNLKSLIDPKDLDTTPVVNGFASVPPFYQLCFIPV

[8] = target: 26S proteasome non-ATPase regulatory subunit 14 (Homo sapiens, UniProt O00487); test: inhibition of proteasome subunit RPN11 – biochemical, fluorescence polarization, uHTS hits, confirmation (AID 602368); assay type: functional
26S proteasome non-ATPase regulatory subunit 14, sequence (O00487 whole entry): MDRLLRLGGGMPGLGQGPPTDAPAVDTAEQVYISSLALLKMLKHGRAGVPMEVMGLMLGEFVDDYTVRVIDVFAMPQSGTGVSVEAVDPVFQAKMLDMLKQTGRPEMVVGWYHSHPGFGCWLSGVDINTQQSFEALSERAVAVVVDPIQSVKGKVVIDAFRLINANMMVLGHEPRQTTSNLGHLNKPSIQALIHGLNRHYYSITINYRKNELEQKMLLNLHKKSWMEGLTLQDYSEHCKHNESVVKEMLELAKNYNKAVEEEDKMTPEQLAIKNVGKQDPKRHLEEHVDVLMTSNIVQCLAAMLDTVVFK

[9] = target: 72 kDa type IV collagenase (Homo sapiens, UniProt P08253); test: Dose Response validation of uHTS RPN11 inhibitor hits using a MMP-2 Fluorescence assay.; assay type: functional
72 kDa type IV collagenase, sequence (P08253 whole entry): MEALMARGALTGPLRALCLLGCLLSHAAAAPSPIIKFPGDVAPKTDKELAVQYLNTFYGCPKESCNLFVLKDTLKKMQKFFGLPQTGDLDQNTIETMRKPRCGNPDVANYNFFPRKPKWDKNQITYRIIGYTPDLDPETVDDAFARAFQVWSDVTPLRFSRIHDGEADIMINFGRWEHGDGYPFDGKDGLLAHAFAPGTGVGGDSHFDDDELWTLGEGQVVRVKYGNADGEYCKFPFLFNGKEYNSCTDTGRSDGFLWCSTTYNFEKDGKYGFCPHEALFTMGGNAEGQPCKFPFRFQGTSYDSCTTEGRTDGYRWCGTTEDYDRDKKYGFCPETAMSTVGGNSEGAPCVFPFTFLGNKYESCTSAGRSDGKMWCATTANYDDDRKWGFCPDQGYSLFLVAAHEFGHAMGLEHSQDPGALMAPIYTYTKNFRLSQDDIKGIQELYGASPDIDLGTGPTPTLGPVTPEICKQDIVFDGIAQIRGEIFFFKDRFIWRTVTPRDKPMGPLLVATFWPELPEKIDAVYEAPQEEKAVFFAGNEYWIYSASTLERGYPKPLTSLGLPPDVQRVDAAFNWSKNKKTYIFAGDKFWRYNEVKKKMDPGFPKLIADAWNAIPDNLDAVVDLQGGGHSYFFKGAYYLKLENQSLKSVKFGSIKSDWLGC

Prothrombin = Prothrombin (Bos taurus, UniProt P00735); test: thrombin inhibition, dose response, biochemical, fluorescence polarization, uHTS hits (AID 602369); assay type: functional
Cytochrome P450 3A4 = Cytochrome P450 3A4 (Homo sapiens, UniProt P08684);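 further: CYP3A4 tested as one member of a cytochrome P450 panel screen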
Cytochrome P450 3A4, sequence (P08684 whole entry): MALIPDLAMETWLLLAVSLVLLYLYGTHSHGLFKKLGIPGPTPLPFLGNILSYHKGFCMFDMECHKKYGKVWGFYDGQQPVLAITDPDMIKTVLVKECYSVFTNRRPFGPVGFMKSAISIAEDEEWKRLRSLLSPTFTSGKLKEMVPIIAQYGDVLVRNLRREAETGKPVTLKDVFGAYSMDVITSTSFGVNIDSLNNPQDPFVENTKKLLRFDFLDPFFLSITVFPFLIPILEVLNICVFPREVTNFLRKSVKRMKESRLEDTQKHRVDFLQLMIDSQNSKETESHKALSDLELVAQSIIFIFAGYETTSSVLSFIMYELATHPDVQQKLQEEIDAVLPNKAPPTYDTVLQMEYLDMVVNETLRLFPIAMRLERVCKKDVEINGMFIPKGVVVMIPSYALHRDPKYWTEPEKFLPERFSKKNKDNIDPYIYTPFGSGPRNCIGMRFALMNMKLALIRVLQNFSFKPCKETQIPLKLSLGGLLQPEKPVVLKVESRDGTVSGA

[10] = NIH-3T3 fibroblast cytotoxicity, dose response, cytotoxicity control, cell-based, fluorescence, Alamar Blue, secondary assay (AID 2327); assay type: functional;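 further: NIH-3T3 mouse fibroblasts cultured with fluconazole at 8 µg/mL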
[11] = C. albicans growth with fluconazole, confirmation, fluorescence, retest (AID 2467); assay type: functional, cell-based
INS1 = test: beta cell apoptosis inhibitors, cytokine rescue, dose response, luminescence, retest (AID 449756); assay type: functional, cell-based; conditions: Rattus norvegicus;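 further: cell death triggered by IL-1 beta plus TNF-alpha plus IFN-gamma mixture; protective hits raise ATP signal compared with cytokine alone wells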
[12] = target: T2, Probable nicotinate-nucleotide adenylyltransferase (Staphylococcus aureus (strain N315), UniProt P65502); assay type: functional, Staphylococcus aureus subsp. aureus N315;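 on IC50 Mean: confirmatory dose-response retesting of NadD inhibitor hits first found in an ultra-high-throughput screen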
[13] = target: T2, Probable nicotinate-nucleotide adenylyltransferase; assay type: functional, Staphylococcus aureus subsp. aureus N315; conditions: read-out: IC50_Mean
[14] = target: T3, Low molecular weight phosphotyrosine protein phosphatase (Homo sapiens, UniProt P24666); assay type: functional; conditions: read-out: IC50_Mean;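 further: Dose-response confirmation assay measuring inhibition of LMPTP enzyme activity by fluorescence intensity read-out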
T3 sequence (P24666 whole entry): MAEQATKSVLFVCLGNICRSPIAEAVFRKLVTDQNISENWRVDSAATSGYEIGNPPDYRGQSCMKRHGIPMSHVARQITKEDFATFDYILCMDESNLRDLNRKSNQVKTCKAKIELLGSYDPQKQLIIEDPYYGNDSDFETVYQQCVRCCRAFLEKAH

[15] = inhibitors of HIV Env-driven cell fusion, dose response, cherry-pick (AID 652057); assay type: functional, cell-based
[16] = CEM21 lymphoblast cell cytotoxicity, dose response, cytotoxicity control for viral fusion inhibitor project, CellTiter-Glo luminescence, cherry-picked (AID 652042); assay type: functional, cell-based;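 further: potency for signal decrease meaning cytotoxicity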
[17] = ZM109 Env clade C HIV-1 fusion inhibitors, dose response, HeLa effector, CEM target cells, luciferase, cherry-pick (AID 652058); assay type: functional, cell-based
Paired box protein Pax-8 = Paired box protein Pax-8 (Homo sapiens, UniProt Q06710); test: inhibitors of PAX8-driven TPO luciferase reporter, dose response, RMG-I cells, cherry-pick (AID 687027); assay type: functional, cell-based;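 further: luciferase reporter driven by Pax8 target thyroperoxidase promoter measured by SteadyGlo luminescence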
Paired box protein Pax-8, sequence (Q06710 whole entry, the tested form may be a part): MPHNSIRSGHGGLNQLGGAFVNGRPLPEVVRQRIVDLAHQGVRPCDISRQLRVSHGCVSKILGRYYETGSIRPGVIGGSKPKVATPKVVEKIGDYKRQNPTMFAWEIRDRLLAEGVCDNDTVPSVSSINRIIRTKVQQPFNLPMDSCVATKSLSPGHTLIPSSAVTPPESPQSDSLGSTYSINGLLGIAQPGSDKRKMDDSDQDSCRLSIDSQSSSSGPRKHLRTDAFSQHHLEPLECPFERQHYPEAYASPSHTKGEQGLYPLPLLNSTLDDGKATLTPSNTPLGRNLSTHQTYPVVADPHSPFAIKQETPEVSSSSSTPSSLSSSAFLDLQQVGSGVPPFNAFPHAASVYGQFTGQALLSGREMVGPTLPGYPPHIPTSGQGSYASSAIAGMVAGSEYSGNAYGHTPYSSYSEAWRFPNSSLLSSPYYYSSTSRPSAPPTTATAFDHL

[18] = off-target signal loss in HeLa-CEM21 co-culture – HeLa F-luc CTL cells, cherry-picked, counter-screen for HIV-1 Env fusion inhibitor project, dose response (AID 652040); assay type: functional, cell-based;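 further: potency for signal decrease marking cytotoxic or nonspecific inhibition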
[19] = inhibitors of clade B AD8 Env fusion, dose response, cell-based, cherry-pick (AID 652062); assay type: functional;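 further: luciferase signal from cell-cell fusion driven by HIV-1 clade B AD8 Env; potency is for inhibitors of fusion seen as a drop in luminescence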
[20] = non-specific cell cytotoxicity, dose response, cytotoxicity control for PAX8 inhibitor project, plate reader, dry powder samples (AID 743021); assay type: functional, cell-based
[21] = HEK293T cytotoxicity, dose response, cytotoxicity control for miR-122 modulator project, cell-based, inhibitor set, cherry-pick, set 2 (AID 720697); assay type: functional

SMILES: O=C(NCCc1ccccc1)Oc1ccc(Cl)cc1
- IC50 (cells [1]): > 29.9 µM (inactive)
- EC50 (cells [2]): > 29.9 µM (inactive)

SMILES: Cc1cc2ncn(/N=C/c3ccc([N+](=O)[O-])o3)c2cc1C
- EC50 [3]: 0.195 µM (active)
- EC50 [4]: 6.44 µM (active)
- EC50 [5]: 15.5 µM (active)
- EC50 [6]: 5.7 µM (active)
- AC50 [7]: 21.9 µM (active)
- AC50 (Cytochrome P450 2C19): 1.12 µM (inconclusive)
- IC50 [8]: 73.6 µM (active)
- IC50 [9]: > 100 µM (inactive)
- IC50 (Prothrombin): 51.4 µM (active)
- AC50 (Cytochrome P450 3A4): 15.8 µM (inconclusive)

SMILES: O=C(N/N=C/c1sc(N2CCOCC2)nc1-c1ccccc1)c1cccc(S(=O)(=O)N2CCCC2)c1
- EC50 [10]: 49.2 µM (active)
- EC50 [11]: 3.31 µM (active)
- AC50 (INS1): 2.44 µM (active)
- IC50 [8]: 19.6 µM (active)
- IC50 [9]: > 100 µM (inactive)
- IC50 (Prothrombin): 24.5 µM (active)

- IC50 [12]: 22.5 µM (active)
- IC50 [13]: 74.3 µM (active)
SMILES: O=C(N/N=C/C=C\c1ccccc1[N+](=O)[O-])c1cc(-c2ccc3ccccc3c2)[nH]n1

- IC50 [14]: 27.3 µM (inactive)
SMILES: Cc1cc(N2CCN(C(C(=O)NC3CCCC3)c3ccco3)CC2)c2ccccc2n1 (centres undefined)

SMILES: CC(=NNc1ccc2ccccc2n1)c1ccccn1
- AC50 [15]: 3.13 µM (active)
- AC50 [16]: 0.399 µM (active)
- AC50 [17]: 10.7 µM (active)
- AC50 (Paired box protein Pax-8): 2.27 µM (active)
- AC50 [18]: 8.41 µM (active)
- AC50 [19]: 5 µM (active)
- AC50 [20]: 59.5 µM (active)

SMILES: CNC(=O)C[C@H]1CC[C@@H]2[C@H](COc3ccc(NC(=O)C(C)C)cc3C(=O)N2C)O1
- AC50 [21]: 9.62 µM (active)
